The target in this test is T1, S1P1 receptor (Homo sapiens, UniProt P21453).
T1 construct: expressed in transfected cells
T1 sequence (P21453 whole entry): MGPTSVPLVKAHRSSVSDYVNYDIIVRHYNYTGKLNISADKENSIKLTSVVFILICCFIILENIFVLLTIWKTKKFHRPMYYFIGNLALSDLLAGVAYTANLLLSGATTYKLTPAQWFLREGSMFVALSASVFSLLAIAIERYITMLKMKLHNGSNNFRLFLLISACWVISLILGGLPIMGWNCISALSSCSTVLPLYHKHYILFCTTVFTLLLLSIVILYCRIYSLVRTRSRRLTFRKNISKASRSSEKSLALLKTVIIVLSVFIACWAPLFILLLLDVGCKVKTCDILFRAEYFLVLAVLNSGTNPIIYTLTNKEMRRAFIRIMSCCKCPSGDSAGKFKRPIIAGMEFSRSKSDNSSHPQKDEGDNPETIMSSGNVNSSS
The test can be described thus: S1P1 receptor agonistic activity assay (PathHunter cell strain, chemiluminescent signal detection). Format: cell-based. The following applies: PathHunter cells, agonist mode, 37° C. for 90-180 minutes. As for the experimental part: 1. A PathHunter cell strain was thawed according to standard procedures;
2. The cell was seeded in 20 μl 384-well microplates and incubated at 37° C. for an appropriate time.
1. For an agonist assay, the cell was incubated with the sample to be tested to initiate a reaction;
2. The stock to be tested is diluted 5 folds to be a buffer solution;
3. The 5-fold diluted solution (5 μL) was added to the cells and incubated at 37° C. for 90-180 minutes. The solvent concentration was 1%.
1. 12.5 μL or 15 μL of PathHunter detection reagent (50 vol. %) was added in one portion and then incubated for 1 hour at room temperature to generate a detection signal;
2. The microplate was read using a PerkinElmer Envision™ instrument for chemiluminescent signal detection.
1. Compound activity analysis was performed using a CBIS Data Analysis Kit;
2. Calculation formula: % activity=100%×(average RLU of sample to be test-average RLU of solvents)/(average maximum control ligand−average RLU of solvents)
A word on the EC50: it is the concentration giving half of the maximal effect. Low readings indicate an effect from little substance, high ones a need for much substance. `CC(C)Oc1ccc(-c2nc(-c3cccc4c3CCC43COC(=O)N3CCO)no2)cc1C#N` (stereo not shown) [Example 37] displayed an EC50 of 10 to 100 nM. The result for `CC(C)Oc1ccc(-c2nc(-c3cccc4c3CCC43CC(=O)N(CCO)C3)no2)cc1S(C)(=O)=O` (stereo not shown) [Example 23] reads 10 to 100 nM; that for `CC(C)Oc1ccc(-c2nc(-c3cccc4c3CCC43CC(=O)N(CC(=O)O)C3)no2)cc1C#N` (stereo not shown) [Example 28], not above 10 nM. With `CC(C)Oc1ccc(-c2ncc(-c3cccc4c3CCC43CC(=O)N(CCO)C3)o2)cc1C#N` (stereo not shown) [Example 42] the figure was 10 to 100 nM; with `CC(C)Oc1ccc(-c2nc(-c3cccc4c3CCC43CC(=O)N(CC(=O)N(C)C)C3)no2)cc1C#N` (stereo not shown) [Example 26], not above 10 nM; with `O=C1CC2(CCc3c(-c4noc(-c5ccc(OC(F)(F)F)cc5)n4)cccc32)CN1CCO` (stereo not shown) [Example 14], more than 100 nM. Consider `O=C1CC2(CCc3c(-c4noc(-c5ccccc5Cl)n4)cccc32)CN1CCO` (stereo not shown) [Example 3], for which the EC50 was more than 100 nM. With `CC(C)Oc1ccc(-c2nc(-c3cccc4c3CCC43CC(=O)N(CCO)C3)no2)cc1Cl` (stereo not shown) [Example 11] the figure was not above 10 nM. On to `CC(C)Oc1ccc(-c2nc(-c3cccc4c3CCC43CC(=O)N(CCCCC(=O)O)C3)no2)cc1C#N` (stereo not shown) [Example 29], for which the EC50 is not above 10 nM. Compound `CC(C)Oc1ccc(-c2nsc(-c3cccc4c3CCC43CC(=O)N(CCO)C3)n2)cc1C#N` (stereo not shown) [Example 39] returned an EC50 of 10 to 100 nM. `CC(C)Oc1ccc(-c2nc(-c3cccc4c3CCC43CC(=O)N(CCO)C3)ns2)cc1C#N` (stereo not shown) [Example 40] returned an EC50 not above 10 nM. The result for `CC(C)Oc1ccc(-c2nc(-c3cccc4c3CCC43CCC(=O)N(CCO)C3)no2)cc1C#N` (stereo not shown) [Example 34] reads not above 10 nM; that for `N#Cc1ccc(-c2nc(-c3cccc4c3CCC43CC(=O)N(CCO)C3)no2)cc1` (stereo not shown) [Example 7], more than 100 nM.

For `CC(C)Oc1ccc(-c2nc(-c3cccc4c3CCC43CC(=O)N(CCO)C3)no2)c(C#N)c1` (stereo not shown) [Example 12], the EC50 was more than 100 nM. The result for `O=C1CC2(CCc3c(-c4noc(-c5ccc(Cl)cc5)n4)cccc32)CN1CCO` (stereo not shown) [Example 1] reads more than 100 nM; that for `CC(C)Oc1ccc(-c2nnc(-c3cccc4c3CCC43CC(=O)N(CCO)C3)s2)cc1C#N` (stereo not shown) [Example 38], not above 10 nM; that for `CC(C)Oc1ccc(-c2nc(-c3cccc4c3CCC43CC(=O)N(CCO)C3)no2)cc1Br` (stereo not shown) [Example 22], not above 10 nM. With `CC(C)Oc1ccc(-c2ncc(-c3cccc4c3CCC43CC(=O)N(CCO)C3)s2)cc1C#N` (stereo not shown) [Example 41] the figure was not above 10 nM; with `O=C1CC2(CCc3c(-c4noc(-c5ccc(OCC6CC6)cc5)n4)cccc32)CN1CCO` (stereo not shown) [Example 19], more than 100 nM; with `CC(C)Oc1ccc(-c2nc(-c3cccc4c3CCC43CC(=O)N(CCS(C)(=O)=O)C3)no2)cc1C#N` (stereo not shown) [Example 25], not above 10 nM.

As for `CC(C)c1ccc(-c2nc(-c3cccc4c3CCC43CC(=O)N(CCO)C3)no2)cc1` (stereo not shown) [Example 17], the EC50 was more than 100 nM. With `CC(C)Oc1ccc(-c2ncc(-c3cccc4c3CCC43CC(=O)N(CCO)C3)cn2)cc1C#N` (stereo not shown) [Example 44] the figure was not above 10 nM; with `N#Cc1ccccc1-c1nc(-c2cccc3c2CCC32CC(=O)N(CCO)C2)no1` (stereo not shown) [Example 18], more than 100 nM. The result for `N#Cc1cccc(-c2nc(-c3cccc4c3CCC43CC(=O)N(CCO)C3)no2)c1` (stereo not shown) [Example 8] reads more than 100 nM. With `COc1ccc(-c2nc(-c3cccc4c3CCC43CC(=O)N(CCO)C3)no2)cc1` (stereo not shown) [Example 4] the figure was more than 100 nM; with `CC(C)Oc1ccc(-c2nc(-c3cccc4c3CCC43CCN(C4CC(C(=O)O)C4)C3)no2)cc1C#N` (stereo not shown) [Example 47], not above 10 nM. In the case of `CC(C)Oc1ccc(-c2nc(-c3cccc4c3CCC43CC(=O)N(CCO)C3)no2)cc1OC(F)F` (stereo not shown) [Example 10], the EC50 is not above 10 nM. With `CC(C)Oc1ccc(-c2nc(-c3cccc4c3CCCC43CC(=O)N(CCO)C3)no2)cc1C#N` (stereo not shown) [Example 33] the figure was not above 10 nM.
